Results from patent US9511073B2, “Aromatic amides and uses thereof” (TAXIS Pharmaceuticals, Inc., priority 2011, dated 2016).
Converted amounts (≈) assume the structure as drawn.

System: Staphylococcus aureus (Isolate ID ATCC 29213)
Assay: Bacterial assay: MIC by broth microdilution or agar dilution (CLSI), S. aureus ATCC 29213
Type: cell-based
Conditions: Staphylococcus aureus, ATCC29213, read-out: S. aureus MIC (μg/mL) Activity Range, S. aureus (ATCC29213)
Description: Compounds are tested for antimicrobial activity by susceptibility testing in liquid or on solid media. Minimum inhibitory concentrations (MICs) for compounds against each strain are determined by the broth microdilution or agar dilution method according to the guidelines of the Clinical Laboratories and Standards Institute, formerly the National Committee for Clinical Laboratory Standards (Clinical Laboratories and Standards Institute. Methods for Dilution Antimicrobial Susceptibility Tests for Bacteria That Grow Aerobically; Approved Standard—Seventh Edition. Document M7-A7. CLSI, Wayne, Pa., 2006; Clinical Laboratories and Standards Institute). The bacterial strains tested include S. aureus (Staphylococcus aureus (Isolate ID ATCC 29213)) and an FtsZ mutant of this isolate (FtsZ-G196A Staphylococcus aureus (Isolate ID GG/190723/sa/1.2)). Compound MICs were determined to be in the following activity ranges “A” activity≦0.25 μg/mL; “B” activity>0.25 μg/mL-1.0 μg/mL; “C” activity>1.0 μg/mL-16 μg/mL; “D” activity>16 μg/mL and ND=not determined. The bracketed entries indicate entantiomer(s) and their activity.

Cc1c(CNC(=O)OCC(Oc2ccc(F)c(C(N)=O)c2F)c2nc(-c3ccc(C(F)(F)F)cc3)c(Br)o2)cnn1C (centres unmarked) [Compound 205, 2-(5-bromo-4-(4-(trifluoromethyl)phenyl)oxazol-2-yl)-2-(3-carbamoyl-2,4-difluorophenoxy)ethyl ((1,5-dimethyl-1H-pyrazol-4-yl)methyl)carbamate]
MIC: 0.25 to 1 µg/mL (≈ 0.38 to 1.52 µM)

NC(=O)c1c(F)ccc(OC(COC(=O)N2CCOCC2)c2nc(-c3ccc(C(F)(F)F)cc3)c(Br)o2)c1F (centres unmarked) [Compound 160, 2-(5-bromo-4-(4-(trifluoromethyl)phenyl)oxazol-2-yl)-2-(3-carbamoyl-2,4-difluorophenoxy)ethyl morpholine-4-carboxylate]
MIC: < 0.25 µg/mL

CS(=O)(=O)NCC(Oc1ccc(F)c(C(N)=O)c1F)c1nc(-c2ccc(C(F)(F)F)cc2)c(Br)o1 (centres unmarked) [Compound 285, 3-(1-(5-bromo-4-(4-(trifluoromethyl)phenyl)oxazol-2-yl)-2-(methylsulfonamido)ethoxy)-2,6-difluorobenzamide]
MIC: 1 to 16 µg/mL (≈ 1.71 to 27.4 µM)

NC(=O)c1c(F)ccc(OC(CO)c2nc(-c3ccccc3F)c(Br)o2)c1F (centres unmarked) [Compound 229, 3-(1-(5-bromo-4-(2-fluorophenyl)oxazol-2-yl)-2-hydroxyethoxy)-2,6-difluorobenzamide]
MIC: > 16 µg/mL

NC(=O)c1c(F)ccc(O[C@H](CO)c2nc3cc(Cl)cnc3s2)c1F [Compound 266B, (R)-3-(1-(6-chlorothiazolo[5,4-b]pyridin-2-yl)-2-hydroxyethoxy)-2,6-difluorobenzamide]
MIC: 1 to 16 µg/mL (≈ 2.59 to 41.5 µM)

CC(=O)NNC(=O)CC(Oc1ccc(F)c(C(N)=O)c1F)c1nc(-c2ccc(C(F)(F)F)cc2)c(Br)o1 (centres unmarked) [Compound 100, 3-(3-(2-acetylhydrazinyl)-1-(5-bromo-4-(4-(trifluoromethyl)phenyl)oxazol-2-yl)-3-oxopropoxy)-2,6-difluorobenzamide]
MIC: 1 to 16 µg/mL (≈ 1.69 to 27.1 µM)

NC(=O)c1c(F)ccc(OC(COC(=O)NCc2ccncc2)c2nc(-c3ccc(C(F)(F)F)cc3)c(Br)o2)c1F (centres unmarked) [Compound 167, 2-(5-bromo-4-(4-(trifluoromethyl)phenyl)oxazol-2-yl)-2-(3-carbamoyl-2,4-difluorophenoxy)ethyl (pyridin-4-ylmethyl)carbamate]
MIC: < 0.25 µg/mL

CCOc1cc2nc(C(C)Oc3ccc(F)c(C(N)=O)c3F)sc2nc1Br (centres unmarked) [Compound 25, 3-(1-(5-bromo-6-ethoxythiazolo[5,4-b]pyridin-2-yl)ethoxy)-2,6-difluorobenzamide]
MIC: 0.25 to 1 µg/mL (≈ 0.546 to 2.18 µM)

CNCC(=O)OCC(Oc1ccc(F)c(C(N)=O)c1F)c1nc(-c2ccc(Cl)cc2)c(Cl)o1 (centres unmarked) [Compound 59, 2-(3-carbamoyl-2,4-difluorophenoxy)-2-(5-chloro-4-(4-chlorophenyl)oxazol-2-yl)ethyl 2-(methylamino)acetate]
MIC: 0.25 to 1 µg/mL (≈ 0.5 to 2 µM)

NC(=O)c1c(F)ccc(OC(CO)c2coc(-c3ccc(C(F)(F)F)cc3)n2)c1F (centres unmarked) [Compound 136, 2,6-difluoro-3-(2-hydroxy-1-(2-(4-(trifluoromethyl)phenyl)oxazol-4-yl)ethoxy)benzamide]
MIC: 1 to 16 µg/mL (≈ 2.33 to 37.4 µM)

CC(=O)OCC(Oc1ccc(F)c(C(N)=O)c1F)c1nc(-c2ccc(C(F)(F)F)cn2)c(Br)o1 (centres unmarked) [Compound 78, 2-(5-bromo-4-(5-(trifluoromethyl)pyridin-2-yl)oxazol-2-yl)-2-(3-carbamoyl-2,4-difluorophenoxy)ethyl acetate]
MIC: > 16 µg/mL

CN(C)CCC(Oc1ccc(F)c(C(N)=O)c1F)c1nc(-c2ccc(C(F)(F)F)cc2)c(Br)o1 (centres unmarked) [Compound 98, 3-(1-(5-bromo-4-(4-(trifluoromethyl)phenyl)oxazol-2-yl)-3-(dimethylamino)propoxy)-2,6-difluorobenzamide]
MIC: 1 to 16 µg/mL (≈ 1.82 to 29.2 µM)

Cc1cc(CNC(=O)OCC(Oc2ccc(F)c(C(N)=O)c2F)c2nc(-c3ccc(C(F)(F)F)cc3)c(Br)o2)ccn1 (centres unmarked) [Compound 200, 2-(5-bromo-4-(4-(trifluoromethyl)phenyl)oxazol-2-yl)-2-(3-carbamoyl-2,4-difluorophenoxy)ethyl ((2-methylpyridin-4-yl)methyl)carbamate]
MIC: 0.25 to 1 µg/mL (≈ 0.381 to 1.53 µM)

CC(=O)OCC(Oc1ccc(F)c(C(N)=O)c1F)c1nc(-c2ccc(-c3noc(C)n3)cc2)c(Br)o1 (centres unmarked) [Compound 82, 2-(5-bromo-4-(4-(5-methyl-1,2,4-oxadiazol-3-yl)phenyl)oxazol-2-yl)-2-(3-carbamoyl-2,4-difluorophenoxy)ethyl acetate]
MIC: 1 to 16 µg/mL

C=CCC(Oc1ccc(F)c(C(N)=O)c1F)c1nc(-c2ccc(Cl)cc2)c(Br)o1 (centres unmarked) [Compound 104, 3-((1-(5-bromo-4-(4-chlorophenyl)oxazol-2-yl)but-3-en-1-yl)oxy)-2,6-difluorobenzamide]
MIC: 1 to 16 µg/mL (≈ 2.07 to 33.1 µM)

CC(=O)OCCCC(Oc1ccc(F)c(C(N)=O)c1F)c1nc(-c2ccc(C(F)(F)F)cc2)c(Br)o1 (centres unmarked) [Compound 89, 4-(5-bromo-4-(4-(trifluoromethyl)phenyl)oxazol-2-yl)-4-(3-carbamoyl-2,4-difluorophenoxy)butyl acetate]
MIC: 0.25 to 1 µg/mL

CNC(=O)C(Oc1ccc(F)c(C(N)=O)c1F)c1nc(-c2ccc(Cl)cc2)cs1 (centres unmarked) [Compound 34, 3-(1-(4-(4-chlorophenyl)thiazol-2-yl)-2-(methylamino)-2-oxoethoxy)-2,6-difluorobenzamide]
MIC: < 0.25 µg/mL

N#Cc1ccc(-c2nc(C(CO)Oc3ccc(F)c(C(N)=O)c3F)oc2Br)s1 (centres unmarked) [Compound 236, 3-(1-(5-bromo-4-(5-cyanothiophen-2-yl)oxazol-2-yl)-2-hydroxyethoxy)-2,6-difluorobenzamide]
MIC: 0.25 to 1 µg/mL (≈ 0.532 to 2.13 µM)

CCOC(=O)COCC(Oc1ccc(F)c(C(N)=O)c1F)c1nc(-c2ccc(C(F)(F)F)cc2)c(Br)o1 (centres unmarked) [Compound 84, ethyl 2-(2-(5-bromo-4-(4-(trifluoromethyl)phenyl)oxazol-2-yl)-2-(3-carbamoyl-2,4-difluorophenoxy)ethoxy)acetate]
MIC: 0.25 to 1 µg/mL (≈ 0.421 to 1.69 µM)

COc1cc(CNC(=O)OCC(Oc2ccc(F)c(C(N)=O)c2F)c2nc(-c3ccc(C(F)(F)F)cc3)c(Br)o2)ccn1 (centres unmarked) [Compound 209, 2-(5-bromo-4-(4-(trifluoromethyl)phenyl)oxazol-2-yl)-2-(3-carbamoyl-2,4-difluorophenoxy)ethyl ((2-methoxypyridin-4-yl)methyl)carbamate]
MIC: 0.25 to 1 µg/mL (≈ 0.372 to 1.49 µM)

NCC(Oc1ccc(F)c(C(N)=O)c1F)c1nc(-c2ccc(C(F)(F)F)cc2)co1 (centres unmarked) [Compound 281, 3-(2-amino-1-(4-(4-(trifluoromethyl)phenyl)oxazol-2-yl)ethoxy)-2,6-difluorobenzamide]
MIC: > 16 µg/mL

NC(=O)c1c(F)ccc(OC(COC(=O)NCc2cccnc2)c2nc(-c3ccc(C(F)(F)F)cc3)c(Br)o2)c1F (centres unmarked) [Compound 166, 2-(5-bromo-4-(4-(trifluoromethyl)phenyl)oxazol-2-yl)-2-(3-carbamoyl-2,4-difluorophenoxy)ethyl (pyridin-3-ylmethyl)carbamate]
MIC: < 0.25 µg/mL

NC(=O)c1c(F)ccc(OC(COC(=O)NCCC(=O)O)c2nc(-c3ccc(C(F)(F)F)cc3)c(Br)o2)c1F (centres unmarked) [Compound 143, 3-(((2-(5-bromo-4-(4-(trifluoromethyl)phenyl)oxazol-2-yl)-2-(3-carbamoyl-2,4-difluorophenoxy)ethoxy)carbonyl)amino)propanoic acid]
MIC: 1 to 16 µg/mL (≈ 1.61 to 25.7 µM)

Cc1nn(C)cc1CNC(=O)OCC(Oc1ccc(F)c(C(N)=O)c1F)c1nc(-c2ccc(C(F)(F)F)cc2)c(Br)o1 (centres unmarked) [Compound 204, 2-(5-bromo-4-(4-(trifluoromethyl)phenyl)oxazol-2-yl)-2-(3-carbamoyl-2,4-difluorophenoxy)ethyl ((1,3-dimethyl-1H-pyrazol-4-yl)methyl)carbamate]
MIC: 0.25 to 1 µg/mL (≈ 0.38 to 1.52 µM)

NC(=O)c1c(F)ccc(OC(CO)c2nc(C3CCOCC3)co2)c1F (centres unmarked) [Compound 182, 2,6-difluoro-3-(2-hydroxy-1-(4-(tetrahydro-2H-pyran-4-yl)oxazol-2-yl)ethoxy)benzamide]
MIC: > 16 µg/mL

NC(=O)c1c(F)ccc(OC(COC(=O)NCc2cccc[n+]2[O-])c2nc(-c3ccc(C(F)(F)F)cc3)c(Br)o2)c1F (centres unmarked) [Compound 173, 2-((((2-(5-bromo-4-(4-(trifluoromethyl)phenyl)oxazol-2-yl)-2-(3-carbamoyl-2,4-difluorophenoxy)ethoxy)carbonyl)amino)methyl)pyridine 1-oxide]
MIC: 0.25 to 1 µg/mL (≈ 0.38 to 1.52 µM)

CC(=O)OCC(Oc1ccc(F)c(C(N)=O)c1F)c1nc(-c2ccc(Cl)cc2)c(Cl)o1 (centres unmarked) [Compound 46, 2-(3-carbamoyl-2,4-difluorophenoxy)-2-(5-chloro-4-(4-chlorophenyl)oxazol-2-yl)ethyl acetate]
MIC: 0.25 to 1 µg/mL

CC(Oc1ccc(F)c(C(N)=O)c1F)c1nc(-c2ccc(Cl)cc2)ns1 (centres unmarked) [Compound 33, 3-(1-(3-(4-chlorophenyl)-1,2,4-thiadiazol-5-yl)ethoxy)-2,6-difluorobenzamide]
MIC: < 0.25 µg/mL

CCOC(=O)C(Oc1ccc(F)c(C(N)=O)c1F)c1nc(-c2ccc(Cl)cc2)cs1 (centres unmarked) [Compound 11, ethyl 2-(3-carbamoyl-2,4-difluorophenoxy)-2-(4-(4-chlorophenyl)thiazol-2-yl)acetate]
MIC: < 0.25 µg/mL

NC(=O)c1c(F)ccc(OC(COC(=O)CCC(=O)O)c2nc(-c3ccc(C(F)(F)F)cc3)c(Br)o2)c1F (centres unmarked) [Compound 74, 4-(2-(5-bromo-4-(4-(trifluoromethyl)phenyl)oxazol-2-yl)-2-(3-carbamoyl-2,4-difluorophenoxy)ethoxy)-4-oxobutanoic acid]
MIC: 1 to 16 µg/mL (≈ 1.65 to 26.3 µM)

COc1ncc(-c2csc(C(C)Oc3ccc(F)c(C(N)=O)c3F)n2)s1 (centres unmarked) [Compound 3]
MIC: < 0.25 µg/mL

Cc1nc(-c2ccc(-c3nc(C(CO)Oc4ccc(F)c(C(N)=O)c4F)oc3Br)cc2)no1 (centres unmarked) [Compound 83, 3-(1-(5-bromo-4-(4-(5-methyl-1,2,4-oxadiazol-3-yl)phenyl)oxazol-2-yl)-2-hydroxyethoxy)-2,6-difluorobenzamide]
MIC: 1 to 16 µg/mL (≈ 1.92 to 30.7 µM)
